Measurements published in patent US7105679B2, “Heteroatom containing tetracyclic derivatives as selective estrogen receptor modulators” (priority 2001, dated 2006).
“And” between values parts separate entries of the source, which are not always exact repeats. Identical values can stand only once. Like-named read-outs stand apart in the source and are kept apart here.

What was measured:
[1] = biological target: T1, human estrogen receptor α (Homo sapiens, UniProt P03372); assay: Estrogen Receptor α Flash Plate Assay (binding of radiolabeled estrogen)
T1 construct: purchased Panvera
T1 sequence (P03372 1-595): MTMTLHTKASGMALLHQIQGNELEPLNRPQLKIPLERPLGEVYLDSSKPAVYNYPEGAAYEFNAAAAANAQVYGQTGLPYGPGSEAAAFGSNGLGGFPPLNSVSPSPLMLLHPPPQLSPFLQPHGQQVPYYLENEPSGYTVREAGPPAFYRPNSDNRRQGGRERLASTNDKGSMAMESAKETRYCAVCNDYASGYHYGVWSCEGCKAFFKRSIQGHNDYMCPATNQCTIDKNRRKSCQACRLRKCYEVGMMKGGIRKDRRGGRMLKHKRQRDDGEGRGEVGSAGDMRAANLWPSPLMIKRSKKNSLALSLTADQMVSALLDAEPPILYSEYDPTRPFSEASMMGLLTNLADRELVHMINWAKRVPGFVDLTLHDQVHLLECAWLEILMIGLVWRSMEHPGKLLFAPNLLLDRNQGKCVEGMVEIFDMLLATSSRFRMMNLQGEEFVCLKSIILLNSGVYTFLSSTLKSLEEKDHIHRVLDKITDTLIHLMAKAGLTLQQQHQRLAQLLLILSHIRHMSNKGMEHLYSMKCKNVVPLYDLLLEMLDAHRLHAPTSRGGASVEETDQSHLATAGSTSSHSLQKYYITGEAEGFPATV
Procedure: This assay monitors binding of radiolabeled estrogen to the estrogen receptor. It is performed on a BioMek 2000 (Beckman). Plates are read in a scintillation counter (Packard TopCount), with decreased counts an indication of binding of a compound to the receptor.
The plate was sealed and incubated at 4° C. overnight.
On day two, each well was washed three times with 200 μL PBS, pH 7.2, at room temperature. To each well was then added 98 μL radiolabeled estrogen (0.5 nM, which equals 6 nCi for a 120 Ci/mmol batch, Amersham), diluted in ESB and 5 mM dithiothreitol (DTT). To individual wells were then added 2.5 μL test compound diluted in 30% (v/v) dimethyl sulfoxide/50 mM HEPES, pH 7.5. The wells were mixed three times by aspiration, the plate sealed and incubated at room temperature for one hour. The wells were then counted for 1 min in a TopCount scintillation counter (Packard).

hER-β = biological target: T2, hER-β (Homo sapiens, UniProt Q92731); assay: Estrogen Receptor β Fluorescence Polarization Assay (binding of Fluormone ES2)
T2 construct: purchased Panvera
T2 sequence (Q92731 whole entry): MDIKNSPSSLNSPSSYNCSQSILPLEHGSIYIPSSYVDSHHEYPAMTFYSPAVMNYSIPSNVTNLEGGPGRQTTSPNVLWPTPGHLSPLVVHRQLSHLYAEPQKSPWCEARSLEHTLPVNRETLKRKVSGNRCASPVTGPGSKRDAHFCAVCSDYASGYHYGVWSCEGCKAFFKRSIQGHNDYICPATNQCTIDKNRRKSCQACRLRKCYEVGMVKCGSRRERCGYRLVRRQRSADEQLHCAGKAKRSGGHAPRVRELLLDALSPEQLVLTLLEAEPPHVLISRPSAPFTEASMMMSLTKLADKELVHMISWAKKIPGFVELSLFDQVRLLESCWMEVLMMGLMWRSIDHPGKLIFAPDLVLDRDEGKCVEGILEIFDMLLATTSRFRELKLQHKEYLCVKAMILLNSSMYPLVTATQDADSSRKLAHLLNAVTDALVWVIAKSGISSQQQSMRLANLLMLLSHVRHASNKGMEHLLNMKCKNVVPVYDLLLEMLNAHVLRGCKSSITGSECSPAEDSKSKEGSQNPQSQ
Source text: This assay monitors binding of a fluorescent analog of estrogen (Fluormone ES2, Panvera) to the estrogen receptor. Plates are read in a fluorometer that can be set to polarization mode. A decrease in […] relative to vehicle control is an indication of binding of a compound to the receptor.
It is crucial to avoid introduction of air bubbles into the reaction in each well of the 96 well plate throughout this procedure. (Bubbles on the surface of the reaction disrupt light flow, affecting the polarization reading.) However, it is also crucial to effectively mix the reaction components upon addition to the well.
On ice, a 2× standard mixture of Assay Buffer (Panvera), 10 nM DTT and 40 nM ES2 was prepared. On ice, a 2× reaction mixture of Assay Buffer (Panvera), and 20 nM hER-β (Panvera) and 40 nM ES2 was also prepared.
Dilutions of test compound were prepared in 30% (v/v) dimethyl sulfoxide/50 mM HEPES, pH 7.5. At this point, the dilutions were 40× the final required concentration.
The standard mixture at 50 μL was then added to each well. The reaction mixture at 48 μL was added to all wells. The compound dilution at 2.5 μL was added to the appropriate wells. The reaction mixtures were mixed using a manual pipette, a roll of aluminum foil adhesive cover was placed on the plate and the plate incubated at room temperature for 1 hour.

Ishikawa cells = assay: Alkaline Phosphatase Assay in Human Endometrial Ishikawa Cells (agonist and antagonist mode); type: cell-based; conditions: number in brackets = number of tests, NA = no detected activity at test concentration; for IC50: antagonist mode with 10 nM 17β-estradiol; for EC50: agonist mode
Procedure: This assay was run according to the procedure described by Albert et a., Cancer Res, […], 50(11), 330-6-10, with minor modification.
Ishikawa cells (from ATCC) were maintained in DMEM/F12 (1:1) phenol red free medium (Gibco) supplemented with 10% calf serum (Hyclone). 24 hours prior to testing, the medium was changed to DMEM/F12 (1:1) phenol red free containing 2% calf serum.
Compounds to be tested in the agonist mode were added to the culture media at varying concentrations. Compounds to be treated in the antagonist mode were prepared similarly, and 10 nM 17β-estradiol was also added to the culture media. The cells were then incubated at 37° C. for 3 days. On the fourth day, the media was remove, 1 volume of 1× Dilution Buffer (Clontech) was added to the well followed by addition of 1 volume of Assay Buffer (Clontech). The cells were then incubated at room temperature for 5 minutes. […] The cells were incubated at room temperature for 10 minutes and then quantified on a luminometer. The increase of chemiluminescence over vehicle control was used to calculate the increase in alkaline phosphatase activity.

MCF-7 cells = assay: MCF-7 Cell Proliferation Assay (14C-thymidine, agonist and antagonist mode); type: cell-based; conditions: number in brackets = number of tests, NA = no detected activity at test concentration
Procedure: This assay was run according to the procedure described by Welshons, et al., (Breast Cancer Res. Treat., 1987, 10(2), 169-75), with minor modification.
Briefly, MCF-7 cells (from Dr. C. Jordan, Northwestern University) were maintained in RPMI 1640 phenol red free medium (Gibco) in 10% FBS (Hyclone), supplemented with bovine insulin and non-essential amino acid (Sigma). The cells were initially treated with 4-hydoxyltamoxifen (10^−8 M) and let stand at 37° C. for 24 hours. Following this incubation with tamoxifen, the cells were treated with compounds at various concentrations.
Compounds to be tested in the agonist mode were added to the culture media at varying concentrations. Compounds to be treated in the antagonist mode were prepared similarly, and 10 nM 17β-estradiol was also added to the culture media. The cells were incubated for 24 hours at 37° C. Following this incubation, 0.1 μCi of ^14C-thymidine (56 mCi/mmol, Amersham) was added to the culture media and the cells were incubated for an additional 24 hours at 37° C. The cells were then washed twice with Hank's buffered salt solution (HBSS) (Gibco) and counted with a scintillation counter. The increase in the ^14C-thymidine in the compound treated cells relative to the vehicle control cells were reported as percent increase in cell proliferation.

[2] = Homo sapiens, MCF7, antagonist mode with 10 nM 17β-estradiol
[3] = flash plate binding, 0.5 nM radiolabeled estrogen, number in brackets = No. of determinations, NA = no detected activity at test concentration, read-out: Estrogen Receptor α in μM (No.)
[4] = fluorescence polarization binding, Fluormone ES2, number in brackets = No. of determinations, NA = no detected activity at test concentration, read-out: Estrogen Receptor β in μM (No.)
[5] = Homo sapiens, MCF7, agonist mode

## COc1ccc2c(c1)OC(c1ccc(OCCN3CCCCC3)cc1)C1=C2CCOc2cc(OC)ccc21 (single isomer, unassigned) [Compound 300, 5R*-(+)-1-{2-[4-(2,8-Dimethoxy-11,12-dihydro-5H-6,13-dioxa-benzo[3,4]cyclohepta[1,2-a]naphthalen-5-yl)-phenoxy]-ethyl}-piperidine]
[1]
  IC50: 0.06 µM
hER-β
  IC50: > 10 µM
Ishikawa cells; Homo sapiens
  IC50: > 100 µM
MCF-7 cells; [2]
  IC50: 17.4 µM

## COc1ccc2c(c1)OCCC1=C2C(c2ccc(OCCN3CCCCC3)cc2)Oc2cc(O)ccc21 (single isomer, unassigned) [Compound 301, 2-Methoxy-5R*-(+)-[4-(2-piperidin-1-yl-ethoxy)-phenyl]-11,12-dihydro-5H-6,13-dioxa-benzo[3,4]cyclohepta[1,2-a]naphthalen-8-ol]
[1]; [3]
  IC50: 0.0041 µM
hER-β; [4]
  IC50: 0.189 µM

## COc1ccc2c(c1)OC(c1ccc(OCCN3CCCCC3)cc1)C1=C2CCOc2cc(O)ccc21 (single isomer, unassigned) [Compound 302, 8-Methoxy-5R*-(+)-[4-(2-piperidin-1-yl-ethoxy)-phenyl]-11,12-dihydro-5H-6,13-dioxa-benzo[3,4]cyclohepta[1,2-a]naphthalen-2-ol]
[1]; [3]
  IC50: 0.0116 µM
hER-β; [4]
  IC50: 0.355 µM

## Oc1ccc2c(c1)O[C@H](c1ccc(OCCN3CCCCC3)cc1)C1=C2COc2cc(O)ccc21 (stereo in doubt) [Compound 14, 5R*-(−)-[4-(2-Piperidin-1-yl-ethoxy)-phenyl]-5,11-dihydro-chromeno[4,3-c]chromene-2,8-diol]
[1]; [3]
  IC50: 0.0074 µM
hER-β; [4]
  IC50: 0.15 µM
Ishikawa cells
  EC50: > 10 µM
  IC50: 0.149 µM
MCF-7 cells; agonist mode
  EC50: > 10 µM
MCF-7 cells; antagonist mode with 10 nM 17β-estradiol
  IC50: 5.6 µM

## Oc1ccc2c(c1)O[C@@H](c1ccc(OCCN3CCCCC3)cc1)C1=C2COc2cc(O)ccc21 (stereo in doubt) [Compound 15, 5S*-(+)-[4-(2-Piperidin-1-yl-ethoxy)-phenyl]-5,11-dihydro-chromeno[4,3-c]chromene-2,8-diol]
hER-β; [4]
  IC50: 0.017 µM and 0.028 µM
Ishikawa cells
  EC50: > 10 µM
  IC50: 0.112 µM
MCF-7 cells; agonist mode
  EC50: > 10 µM

## Oc1ccc2c(c1)OC(c1ccccc1)C1=C2COc2cc(O)ccc21 (centres unmarked) [Compound 6, 5-Phenyl-5,11-dihydro-chromeno[4,3-c]chromene-2,8-diol]
hER-β
  IC50: 0.016 µM
Ishikawa cells; Homo sapiens
  EC50: 0.033 µM
  IC50: > 10 µM
MCF-7 cells; [5]
  EC50: 0.097 µM
MCF-7 cells; [2]
  IC50: > 10 µM

## Oc1ccc2c(c1)OC(c1ccc(OCCN3CCCCC3)cc1)C1=C2COc2cc(O)ccc21 (centres unmarked) [Compound 9, 5-[4-(2-Piperidin-1-yl-ethoxy)-phenyl]-5,11-dihydrochromeno[4,3-c]chromene-2,8-diol]
[1]; [3]
  IC50: 0.0023 µM
hER-β; [4]
  IC50: 0.084 µM
Ishikawa cells; Homo sapiens
  EC50: > 10 µM
  IC50: 0.11 µM
MCF-7 cells; [5]
  EC50: > 10 µM
MCF-7 cells; [2]
  IC50: 0.777 µM

## Oc1ccc2c(c1)OC(c1ccc(OCCN3CCCC3)cc1)C1=C2COc2cc(O)ccc21 (centres unmarked) [Compound 11, 5-[4-(2-Pyrrolidin-1-yl-ethoxy)-phenyl]-5,11-dihydrochromeno[4,3-c]chromene-2,8-diol]
hER-β
  IC50: 0.7 µM
Ishikawa cells; Homo sapiens
  IC50: 0.08 µM
MCF-7 cells; [5]
  EC50: > 10 µM
MCF-7 cells; [2]
  IC50: 0.246 µM

## Oc1ccc2c(c1)OC(c1ccc(OCCN3CCOCC3)cc1)C1=C2COc2cc(O)ccc21 (centres unmarked) [Compound 13, 5-[4-(2-Morphlin-4-yl-ethoxy)-phenyl]-5,11-dihydrochromeno[4,3-c]chromene-2,8-diol]
hER-β
  IC50: 0.026 µM
Ishikawa cells; Homo sapiens
  EC50: > 10 µM
  IC50: 0.228 µM
MCF-7 cells; [5]
  EC50: > 10 µM
MCF-7 cells; [2]
  IC50: 1.4 µM

## Oc1ccc2c(c1)OC(c1ccc(OCCN3CCCCCC3)cc1)C1=C2COc2cc(O)ccc21 (centres unmarked) [Compound 17, 5-[4-(2-Azepan-1-yl-ethoxy)-phenyl]-5,11-dihydrochromeno[4,3-c]chromene-2,8-diol]
hER-β
  IC50: 0.031 µM
Ishikawa cells; Homo sapiens
  EC50: > 10 µM
  IC50: 0.513 µM
MCF-7 cells; [5]
  EC50: > 10 µM
MCF-7 cells; [2]
  IC50: 3.58 µM

## CCN(CC)CCOc1ccc(C2Oc3cc(O)ccc3C3=C2c2ccc(O)cc2OC3)cc1 (centres unmarked) [Compound 19, 5-[4-(2-Diethylamino-ethoxy)-phenyl]-5,11-dihydrochromeno[4,3-c]chromene-2,8-diol]
[1]; [3]
  IC50: 0.0019 µM
hER-β; [4]
  IC50: 0.099 µM
Ishikawa cells; Homo sapiens
  EC50: > 10 µM
  IC50: 0.25 µM
MCF-7 cells; [5]
  EC50: > 10 µM
MCF-7 cells; [2]
  IC50: 0.713 µM

## CN(C)CCOc1ccc(C2Oc3cc(O)ccc3C3=C2c2ccc(O)cc2OC3)cc1 (centres unmarked) [Compound 21, 5-[4-(2-Dimethylamino-ethoxy)-phenyl]-5,11-dihydrochromeno[4,3-c]chromene-2,8-diol]
[1]; [3]
  IC50: 0.015 µM
hER-β; [4]
  IC50: 0.011 µM
Ishikawa cells; Homo sapiens
  EC50: > 10 µM
  IC50: 0.83 µM
MCF-7 cells; [5]
  EC50: > 10 µM
MCF-7 cells; [2]
  IC50: 0.97 µM

## CN(C)c1ccc(C2Oc3cc(O)ccc3C3=C2c2ccc(O)cc2OC3)cc1 (centres unmarked) [Compound 26, 5-[4-Dimethylamino-phenyl]-5,11-dihydro-chromeno[4,3-c]chromene-2,8-diol]
[1]; [3]
  IC50: 0.014 µM
hER-β; [4]
  IC50: 0.02 µM
Ishikawa cells; Homo sapiens
  EC50: > 10 µM
  IC50: 0.18 µM
MCF-7 cells; [5]
  EC50: 0.0643 µM
MCF-7 cells; [2]
  IC50: > 10 µM

## CC(C)(C)C(=O)Oc1ccc2c(c1)OC(c1ccc(OCCN3CCCCC3)cc1)C1=C2C(O)Oc2cc(OC(=O)C(C)(C)C)ccc21 (centres unmarked) [Compound 28]
[1]; [3]
  IC50: 0.14 µM
hER-β; [4]
  IC50: 6.25 µM

## CC1(c2ccc(OCCN3CCCCC3)cc2)Oc2cc(O)ccc2C2=C1c1ccc(O)cc1OC2 (centres unmarked) [Compound 29]
[1]; [3]
  IC50: 0.004 µM
hER-β; [4]
  IC50: 0.017 µM
